According to patent publication US20250352555A1, “METHOD OF INCREASING IMMUNE CELL ACTIVATION AND/OR TREATING CANCER USING DIBENZOXAZEPINONES” (VASCULAR THERAPEUTICS PTY LTD, priority 2022, published 2025):
Where “and” joins values, the source holds several entries; their conditions need not be identical. Identical values can stand only once.

What was measured:
MeWo cells [1] = assay: Invasion assay (Matrigel), MeWo; assay type: cell-based, human; settings: 1 μM, 48 h, with greater potency than SCH772984
Experimental: Invasion assays. Cells were grown in medium containing 10% FBS in 24-well plates. The following day the cells were scratched with a sterile toothpick, washed with PBS, and overlayed with 90% Matrigel (cat. no. 354230, Corning) (200 μl/well) containing vehicle, BT2 or SCH772984 at 1 μM. The cells were immediately photographed under a 10× objective using an Olympus CKX41 microscope, incubated at 37° C. for 1 h, and medium (800 μl/well) containing 10% FBS with vehicle, BT2 or SCH772984 at 1 μM was added. After 24 or 48 h, the cells were again photographed under a 10× objective using the same microscope. To assess the effect of BT2 on melanoma cell migration, A375 and MeWo cells were incubated with 1 μM of BT2 or SCH772984, and A375 and MeWo migration into the denuded zone was quantified after 24 or 48 h, respectively.

MeWo cells [2] = assay: Apoptosis, flow cytometry with Annexin V-FITC, MeWo; assay type: cell-based, human; settings: 1 μM, 24 h
Experimental: Flow cytometry with Annexin V-FITC. Cells were seeded into 6 well plates in normal culture medium containing 10% FBS. After culturing overnight, the cells were incubated in complete medium containing vehicle, BT2 or SCH772984 at 1 μM and left for 24 h. The culture medium was removed and the cells were washed with PBS. Accutase (Stem Cell Technologies, cat. no. 07920) was used to detach the cells. The cells were then washed and centrifuged at 300 g for 5 min and resuspended at 1×10^6 cells/ml in 500 μl of 1× binding buffer (Annexin V-FITC Apoptosis Staining/Detection Kit, Abcam, cat. no. ab14085). The cells were transferred to 12×75 mm tubes and annexin V-FITC/propidium iodide (PI) was added and incubated for 5 min at 22° C. protected from light. Stained cell suspensions were analyzed by flow cytometry using a BD LSRFortessa X20.
The morphology of A375 and MeWo cells exposed to 1 μM of BT2 or SCH772984 for 24 h was also assessed.

[3] = Serum BT2 concentration by LC-MS in B16F10 tumor-bearing mice; assay type: in vivo; settings: mouse, intraperitoneal, Day 17, 200 mg/kg i.p., C57BL/6J mice
Experimental: Mass spectrometry. Proteins in serum (50 μl) were precipitated by diluting with acetone (150 μl). The mixture was left for 14 h at 4° C. and protein was pelleted by centrifugation (10 min at 14,000 g) and supernatant removed. The solution (10 μl) was diluted into 40 μl Buffer A (H2O (0.1% formic acid)) for MS analysis. BT2 standard was prepared by diluting stock suspension of BT2 ([…], 30 mg/ml) in Buffer A (990 μl) then diluting 10 μl of this in 990 μl followed by another 1 in 100 dilution. […] LC-MS was performed using a Thermo QExactive HF, Gold C18 column (50×2.1 mm) with Solvent A (H2O (0.1% formic acid) and Solvent B (H2O:CH3CN 20:80 (0.1% formic acid) with gradient T=0, 1% B, T=26 min, 100% B, T=27 min, 100%, T=27.1, 1% B, T=30 min, 1% B; column temperature 45° C. MS1 scan, m/z 140-800, 3×10^6 ions, max IT 25 msec, resolution 120,000 and Top 5 MS2 (2×10^5 ions, max IT 50 msec, resolution 30,000 and HCD 20, 30 50V). Extracted ion chromatograms (m/z 327.134±5 ppm) were obtained for blanks, standards and samples and integrated peak areas calculated and compared).
To assess the effect of BT2 in the same model, C57BL/6J mice bearing s.c. B16F10 tumors were administered with BT2 or vehicle (200 mg/kg or 20 ml/kg, respectively, i.p.) once a day on a 5 days-on/2 days-off schedule. Treatment commenced on Day 5 (FIG. 9A). […]

concentration at 17 day [3]: 4000 ng/mL and 12.3 µM
SMILES: CCOC(=O)Nc1ccc2c(c1)C(=O)N(CC)c1ccccc1O2 [BT2, (10-ethyl-11-oxo-10,11-dihydro-dibenzo[b,f][1,4]oxazepin-2-yl)-carbamic acid ethyl ester]
invasion into the denuded zone of Matrigel (MeWo cells [1]): suppressed
apoptosis (Annexin V-FITC+ PI−) (MeWo cells [2]): increased apoptosis
